{
  "source": "patent US4376773A",
  "about": "“10-Substituted 5-cyanomethylene-10,11-dihydro-dibenzo-[a,d]-cycloheptenes, their preparation, and therapeutic agents containing these compounds” (BASF Aktiengesellschaft, priority 1980, dated 1983)",
  "key": {"[1]": {"test_system": "orientation hypermotility", "assay": "Sedative action: orientation hypermotility in mice", "assay_type": "in vivo, mouse (female NMRI)", "conditions": "for Sedation R.A. (relative activity): clozapine = 1.0; for ED50: Mus musculus, 0.5 h, mice, oral, 30 min after administration, 50% decrease in orientation hypermotility vs placebo, read-out: Sedation ED 50%", "experimental": "4-8 groups of 3 female NMRI mice are given the compound orally. The orientation hypermotility induced by a new environment is determined photoelectrically, 30 minutes after administration of the compound, for a period of 30 minutes. The ED50 is the dose which produces a decrease in orientation hypermotility by 50%, compared to control animals treated with placebo."}, "[2]": {"test_system": "tonic extensor reflex on the rabbit gastrocnemius", "assay": "Muscle-relaxing action: tonic extensor reflex", "assay_type": "in vivo", "conditions": "for ED50: Oryctolagus cuniculus, rabbit, intravenous, dose reducing muscle activity to half, read-out: Muscle relaxation ED 50%; for Muscle relaxation R.A. (relative activity): clozapine = 1.0", "from_the_text": "The measurement is based on quantifying the tonic extensor reflex on the rabbit gastrocnemius (Teschendorf et al., Arch. Pharmacol. exp. Path. 266 (1970), 462). The rabbit is fixed in a special apparatus which permits bending the paw at the talocalcanean joint in a defined and reproducible manner. As a result of this bending, a tonic extensor reflex is triggered in the […]. The electrical activity of the muscle during contraction is registered and the individual pulses are counted. The extension (duration 5 s) is repeated at intervals of one minute. After a constant number of pulses has been reached (constituting the control value), the test compound is administered intravenously. The number of pulses after administration is related to the previous value. For each dose investigated, 4-6 animals are used. The ED 50% is the dose which reduces the muscle activity to half, based on the initial value."}, "[3]": {"test_system": "methamphetamine-antagonism (sniffing movements)", "assay": "Antimethamphetamine action: methamphetamine-induced sniffing movements", "assay_type": "in vivo, rat", "conditions": "for ED50: ip, 0.5 h, rat, intraperitoneal, 30 min before methamphetamine 2.5 mg/kg i.v., read-out: Antimethamphetamine action ED 50%; for Antimethamphetamine action R.A. (relative activity): clozapine = 1.00", "experimental": "Methamphetamine (2.5 mg/kg administered intravenously) regularly causes the following symptoms in rats: motor restlessness, searching and sniffing movements, bristling fur and tremor (Janssen et al., Arzneim.-Forsch./DrugRes. 13 (1963), 205; Randrug et al., Psychopharmacologia 11 (1967), 300). The test substances are administered intraperitoneally, 30 minutes before the methamphetamine. The criterion of whether a compound has an effect is whether the sniffing movements remain absent over 5 minutes' observation after the injection of methamphetamine. That dose is determined as the mean inhibitory dose (ED 50%) by means of Probit analysis which prevents the symptom in half the number of animals. Number of animals examined per dose: 10."}, "[4]": {"test_system": "apomorphine-antagonism (mandibular movements)", "assay": "Antiapomorphine action: apomorphine-triggered mandibular movements", "assay_type": "in vivo, rat (female Sprague-Dawley)", "conditions": "for ED50: 1.5 h, read-out: Antiapomorphine action ED 50%; for Antiapomorphine action R.A. (relative activity): clozapine = 1.00", "experimental": "The test substances are administered orally 90 minutes before the apomorphine."}, "death from physostigmine": {"test_system": "death from physostigmine", "assay": "Anticholinergic action: protection against physostigmine lethality", "assay_type": "in vivo, mouse (female NMRI)", "conditions": "mice, oral, 30 min before physostigmine 0.825 mg/kg s.c.; dose protecting 50% against death", "experimental": "Groups of 10 female NMRI mice are given physostigmine subcutaneously, at a lethal dose (0.825 mg/kg). The test substances are administered orally 30 minutes before the administration of physostigmine.\nThe ED 50% is determined as the dose of compound which protects 50% of the animals against death from physostigmine."}, "Acute toxicity": {"assay": "Acute toxicity", "conditions": "mouse, in vivo, ip; mice, intraperitoneal; read-out: Toxicity LD 50", "experimental": "Groups of 5-10 female NMRI mice are given the compounds intraperitoneally. The LD 50 is determined as the dose after which 50% of the treated animals die."}, "[5]": {"conditions": "rat, oral, 90 min before apomorphine 1.5 mg/kg s.c."}},
  "note": "Like-named read-outs stand apart in the source and are kept apart here.",
  "data": [
    {"smiles": "CN1CCN(C2=Nc3cc(Cl)ccc3Nc3ccccc32)CC1", "note": "[Clozapine, clozapine, reference compound]", "values": [
      {"measurement": "Sedation R.A. (relative activity)", "setting": "[1]", "result": 1.0},
      {"measurement": "ED50", "setting": "[2]", "result": 0.046, "unit": "mg/kg"},
      {"measurement": "Muscle relaxation R.A. (relative activity)", "setting": "[2]", "result": 1.0},
      {"measurement": "ED50", "setting": "[3]", "result": 37, "unit": "mg/kg"},
      {"measurement": "Antimethamphetamine action R.A. (relative activity)", "setting": "[3]", "result": 1.00},
      {"measurement": "ED50", "setting": "[4]; [5]", "result": 8, "unit": "mg/kg"},
      {"measurement": "Antiapomorphine action R.A. (relative activity)", "setting": "[4]", "result": 1.00}
    ]},
    {"smiles": "CN1CCN(C2Cc3ccccc3C(=CC#N)c3ccccc32)CC1", "note": "(mixture of isomers) [Example 1, cis,trans-5-Cyanomethylene-10-(4-methyl-piperazin-1-yl)-10,11-dihydro-dibenzo[a,d]-cycloheptene. 1/2 H2 O]", "values": [
      {"measurement": "ED50", "setting": "[1]", "result": 5.6, "unit": "mg/kg"},
      {"measurement": "Sedation R.A. (relative activity)", "setting": "[1]", "result": 0.85},
      {"measurement": "ED50", "setting": "[2]", "result": 0.1, "unit": "mg/kg"},
      {"measurement": "Muscle relaxation R.A. (relative activity)", "setting": "[2]", "result": 0.46},
      {"measurement": "ED50", "setting": "[3]", "result": 5.4, "unit": "mg/kg"},
      {"measurement": "Antimethamphetamine action R.A. (relative activity)", "setting": "[3]", "result": 6.85},
      {"measurement": "ED50 protecting against physostigmine lethality", "setting": "death from physostigmine", "result": "> 46.4"},
      {"measurement": "LD50", "setting": "Acute toxicity", "result": "> 100", "unit": "mg/kg"}
    ]},
    {"smiles": "CN1CCN(C2=Nc3ccccc3Cc3ccccc32)CC1", "note": "[Perlapine, perlapine, reference compound]", "values": [
      {"measurement": "ED50", "setting": "[1]", "result": 2.01, "unit": "mg/kg"},
      {"measurement": "Sedation R.A. (relative activity)", "setting": "[1]", "result": 2.36},
      {"measurement": "ED50", "setting": "[2]", "result": 0.1, "unit": "mg/kg"},
      {"measurement": "Muscle relaxation R.A. (relative activity)", "setting": "[2]", "result": 0.46},
      {"measurement": "ED50", "setting": "[3]", "result": 31, "unit": "mg/kg"},
      {"measurement": "Antimethamphetamine action R.A. (relative activity)", "setting": "[3]", "result": 1.19},
      {"measurement": "ED50", "setting": "[4]; Rattus norvegicus, po", "result": 21.5, "unit": "mg/kg"},
      {"measurement": "Antiapomorphine action R.A. (relative activity)", "setting": "[4]", "result": 0.37}
    ]},
    {"smiles": "N#CC=C1c2ccccc2CC(N2CCN(CCO)CC2)c2ccccc21", "note": "(mixture of isomers) [Example 7, cis,trans-5-Cyanomethylene-10-(N-β-hydroxyethyl-piperazin-1-yl)-10,11-dihydro-dibenzo[a,d]-cycloheptene. 1/2 H2 O]", "values": [
      {"measurement": "ED50", "setting": "[1]", "result": 10, "unit": "mg/kg"},
      {"measurement": "Sedation R.A. (relative activity)", "setting": "[1]", "result": 0.47},
      {"measurement": "ED50", "setting": "[3]", "result": 30, "unit": "mg/kg"},
      {"measurement": "Antimethamphetamine action R.A. (relative activity)", "setting": "[3]", "result": 1.23},
      {"measurement": "ED50 protecting against physostigmine lethality", "setting": "death from physostigmine", "result": "> 100"},
      {"measurement": "LD50", "setting": "Acute toxicity", "result": "> 100", "unit": "mg/kg"}
    ]},
    {"smiles": "CN1CCN(C2Cc3cc(Cl)ccc3C(=CC#N)c3ccccc32)CC1", "note": "(mixture of isomers) [Example 4, cis,trans-2-Chloro-5-cyanomethylene-10-(4-methylpiperazin-1-yl)-10,11-dihydro-dibenzo[a,d]-cycloheptene]", "values": [
      {"measurement": "ED50", "setting": "[1]", "result": 5.5, "unit": "mg/kg"},
      {"measurement": "Sedation R.A. (relative activity)", "setting": "[1]", "result": 0.86},
      {"measurement": "ED50", "setting": "[2]", "result": 0.02, "unit": "mg/kg"},
      {"measurement": "muscle-relaxing action compared with comparative substances", "setting": "[2]; in words, vs clozapine and perlapine", "result": "markedly surpasses those of the comparative substances"},
      {"measurement": "Muscle relaxation R.A. (relative activity)", "setting": "[2]", "result": 2.30},
      {"measurement": "ED50", "setting": "[3]", "result": 4.6, "unit": "mg/kg"},
      {"measurement": "Antimethamphetamine action R.A. (relative activity)", "setting": "[3]", "result": 8.04}
    ]},
    {"smiles": "CCN1CCN(C2Cc3ccccc3C(=CC#N)c3ccccc32)CC1", "note": "(mixture of isomers) [Example 5, cis,trans-5-Cyanomethylene-10-(4-ethyl-piperazin-1-yl)-10,11-dihydro-dibenzo[a,d]-cycloheptene. 1/2 H2 O]", "values": [
      {"measurement": "ED50", "setting": "[1]", "result": 6.7, "unit": "mg/kg"},
      {"measurement": "Sedation R.A. (relative activity)", "setting": "[1]", "result": 0.71},
      {"measurement": "ED50", "setting": "[2]", "result": 0.1, "unit": "mg/kg"},
      {"measurement": "Muscle relaxation R.A. (relative activity)", "setting": "[2]", "result": 0.46},
      {"measurement": "ED50", "setting": "[3]", "result": 13, "unit": "mg/kg"},
      {"measurement": "Antimethamphetamine action R.A. (relative activity)", "setting": "[3]", "result": 2.85},
      {"measurement": "ED50 protecting against physostigmine lethality", "setting": "death from physostigmine", "result": "> 46.4"},
      {"measurement": "LD50", "setting": "Acute toxicity", "result": "> 100", "unit": "mg/kg"}
    ]},
    {"smiles": "C[N+]1([O-])CCN(C2Cc3ccccc3C(=CC#N)c3ccccc32)CC1", "note": "(mixture of isomers) [Example 8, cis, trans-5-Cyanomethylene-10-(4-methyl-4-oxy-piperazin-1-yl)-10,11-dihydro-dibenzo[a,d]-cycloheptene. 1/2 H2 O]", "values": [
      {"measurement": "ED50", "setting": "[1]", "result": 15.2, "unit": "mg/kg"},
      {"measurement": "Sedation R.A. (relative activity)", "setting": "[1]", "result": 0.31},
      {"measurement": "ED50", "setting": "[3]", "result": 39, "unit": "mg/kg"},
      {"measurement": "Antimethamphetamine action R.A. (relative activity)", "setting": "[3]", "result": 0.95},
      {"measurement": "ED50", "setting": "[4]; [5]", "result": 7, "unit": "mg/kg"},
      {"measurement": "Antiapomorphine action R.A. (relative activity)", "setting": "[4]", "result": 1.14},
      {"measurement": "ED50 protecting against physostigmine lethality", "setting": "death from physostigmine", "result": "> 100"},
      {"measurement": "LD50", "setting": "Acute toxicity", "result": "> 100", "unit": "mg/kg"}
    ]}
  ]
}
